These results are taken from US20100061982A1, “3-SUBSTITUTED-1H-INDOLE, 3-SUBSTITUTED-1H-PYRROLO[2,3-B]PYRIDINE AND 3-SUBSTITUTED-1H-PYRROLO[3,2-B]PYRIDINE COMPOUNDS, THEIR USE AS MTOR KINASE AND PI3 KINASE INHIBITORS, AND THEIR SYNTHESES” (priority 2008, published 2010).

Converted amounts (≈) assume the structure as drawn. Like-named read-outs stand apart in the source and are kept apart here.

The nature of data set [1]: Microsome Stability (15 min), human. To be noted: microsomes. In kind it is in vitro ADME.
The nature of data set [2]: Microsome Stability (15 min), nude mouse. It is filed as in vitro ADME. To be noted: microsomes.
A short description of data set [3]: Microsome Stability (15 min), rat. In kind it is in vitro ADME. To be noted: microsomes.
For another data set, the target named is mTOR (Homo sapiens, UniProt P42345). The data set is described as follows: mTOR Enzyme Assay (DELFIA, purified enzyme). In kind it is biochemical. Further details: FLAG.
A short description of another data set: Solubility pH 7.4. To be noted: pH 7.4, aqueous buffer.
The nature of data set [4]: PAMPA permeability pH 7.4. For orientation: PAMPA measures passive passage across an artificial lipid membrane.
The nature of data set [5]: Buffer Stability (37° C.).
A further data set deals with PI3K alpha (Homo sapiens, UniProt P42336). The data set is described as follows: PI3K-alpha Fluorescence Polarization Assay. In kind it is biochemical. Background: Polarisation of emitted light reports the rotation of a fluorescent probe.
Data set [6] in a line: CACO2 permeability a-b/b-a. It is filed as in vitro ADME. To be noted: human, Caco-2. (In general: Caco-2 cells form a polarised layer with tight junctions and transporters.)
[7] abbreviates: Phase I (NADPH), read-out: Microsome Stability (15 min) T ½ Phase I human.
Setting [8] is: value after the slash in Table VIc, read-out: Microsome Stability (15 min) T ½ human, second value of cell.
Where [9] appears, read: nude, mouse, Phase I (NADPH), read-out: Microsome Stability (15 min) T ½ Phase I nude mouse.
Where [10] appears, read: nude, mouse, value after the slash in Table VIc, read-out: Microsome Stability (15 min) T ½ nude mouse, second value of cell.
Where [11] appears, read: Phase I (NADPH), read-out: Microsome Stability (15 min) T ½ Phase I rat.
Where [12] appears, read: value after the slash in Table VIc, read-out: Microsome Stability (15 min) T ½ rat, second value of cell.

Chain of PI3K alpha (P42336 whole entry, species assumed): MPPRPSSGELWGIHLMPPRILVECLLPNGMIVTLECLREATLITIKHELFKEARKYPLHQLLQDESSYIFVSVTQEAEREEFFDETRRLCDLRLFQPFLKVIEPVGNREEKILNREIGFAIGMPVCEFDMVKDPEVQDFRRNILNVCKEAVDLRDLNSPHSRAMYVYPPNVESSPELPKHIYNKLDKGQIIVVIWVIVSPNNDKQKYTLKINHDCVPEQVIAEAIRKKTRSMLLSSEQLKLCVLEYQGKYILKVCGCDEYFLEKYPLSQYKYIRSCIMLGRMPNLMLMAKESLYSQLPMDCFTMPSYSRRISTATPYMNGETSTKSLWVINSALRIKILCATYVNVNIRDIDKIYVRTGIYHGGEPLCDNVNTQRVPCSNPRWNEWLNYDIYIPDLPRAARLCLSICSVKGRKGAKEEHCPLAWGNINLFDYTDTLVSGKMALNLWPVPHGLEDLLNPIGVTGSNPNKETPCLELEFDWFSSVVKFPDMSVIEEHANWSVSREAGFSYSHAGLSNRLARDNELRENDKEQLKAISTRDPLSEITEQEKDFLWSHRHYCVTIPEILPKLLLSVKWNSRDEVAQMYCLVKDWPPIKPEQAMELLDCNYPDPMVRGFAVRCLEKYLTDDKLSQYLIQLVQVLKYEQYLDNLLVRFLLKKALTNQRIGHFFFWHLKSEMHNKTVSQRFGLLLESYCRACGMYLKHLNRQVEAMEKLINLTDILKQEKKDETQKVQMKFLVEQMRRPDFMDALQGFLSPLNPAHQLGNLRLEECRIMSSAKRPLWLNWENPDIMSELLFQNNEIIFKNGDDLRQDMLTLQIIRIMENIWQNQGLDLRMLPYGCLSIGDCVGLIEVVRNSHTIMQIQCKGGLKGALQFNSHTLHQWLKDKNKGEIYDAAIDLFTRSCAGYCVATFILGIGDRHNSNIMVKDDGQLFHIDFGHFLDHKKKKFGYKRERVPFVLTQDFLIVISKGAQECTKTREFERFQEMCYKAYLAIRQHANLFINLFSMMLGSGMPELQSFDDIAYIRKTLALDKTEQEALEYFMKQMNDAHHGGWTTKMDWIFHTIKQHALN
Chain of PI3K alpha (P27986 whole entry partner, species assumed): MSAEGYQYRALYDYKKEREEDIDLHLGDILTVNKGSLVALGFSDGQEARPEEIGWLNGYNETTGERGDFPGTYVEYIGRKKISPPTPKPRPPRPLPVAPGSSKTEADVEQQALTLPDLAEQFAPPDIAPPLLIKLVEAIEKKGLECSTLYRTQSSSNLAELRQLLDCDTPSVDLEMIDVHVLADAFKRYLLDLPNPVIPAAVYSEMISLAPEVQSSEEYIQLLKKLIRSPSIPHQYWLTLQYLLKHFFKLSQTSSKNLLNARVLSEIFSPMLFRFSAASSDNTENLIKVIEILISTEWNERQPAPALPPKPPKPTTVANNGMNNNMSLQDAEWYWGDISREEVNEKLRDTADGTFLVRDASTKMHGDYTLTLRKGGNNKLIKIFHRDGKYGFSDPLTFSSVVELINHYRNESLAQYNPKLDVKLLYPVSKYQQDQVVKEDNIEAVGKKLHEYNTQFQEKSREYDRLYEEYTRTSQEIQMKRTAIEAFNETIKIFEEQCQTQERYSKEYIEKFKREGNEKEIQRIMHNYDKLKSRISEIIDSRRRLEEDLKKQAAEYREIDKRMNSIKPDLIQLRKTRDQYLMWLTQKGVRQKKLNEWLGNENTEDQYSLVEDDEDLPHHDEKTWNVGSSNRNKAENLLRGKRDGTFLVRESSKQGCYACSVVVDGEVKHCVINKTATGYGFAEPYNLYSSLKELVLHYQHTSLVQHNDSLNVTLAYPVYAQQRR

As for `COc1ccc2c(c1)c(/C=C1\Oc3cc(O)cc(O)c3C1=O)c(C)n2CCN1CCN(C)CC1` [(2Z)-4,6-dihydroxy-2-({5-methoxy-2-methyl-1-[2-(4-methylpiperazin-1-yl)ethyl]-1H-indol-3-yl}methylene)-1-benzofuran-3(2H)-one], the half-life in data set [1] (setting [7]) is 11 min; in data set [1] (setting [8]), 17 min; in data set [2] (setting [9]), over 30 min; in data set [2] (setting [10]), 25 min; in [3] (setting [11]) it was 21 min; in [3] (setting [12]), 6 min. In addition, on mTOR (read-out: mTOR Mean IC50), the IC50 (usually the point on the concentration scale where inhibition reaches its midpoint) stood at 22.5 nM. The solubility (as a rule, how much of the substance goes into solution per volume) in “Solubility pH 7.4” stood at 32 µg/mL (≈ 69 µM). For the same molecule, in [4], the “PAMPA Pe” value was 0 10e−6 cm/s. For the same molecule, the “Buffer Stability (37° C.) % Remaining (at 16-23 hours) SGF” value in [5] (SGF) is listed as 99%. Moreover, in [5] (SIF), the “Buffer Stability (37° C.) % Remaining (at 16-23 hours) SIF” value was 63%. The “Buffer Stability (37° C.) % Remaining (at 16-23 hours) pH 1” value in data set [5] (pH 1) amounted to 99%. The “Buffer Stability (37° C.) % Remaining (at 16-23 hours) pH 4.5” value in data set [5] (pH 4.5) was found to be 78%. Further, the “Buffer Stability (37° C.) % Remaining (at 16-23 hours) pH 6.6” value in data set [5] (pH 6.6) is 63%. In addition, in data set [5] (pH 7.4), the “Buffer Stability (37° C.) % Remaining (at 16-23 hours) pH 7.4” value worked out at 66%. In addition, the “Buffer Stability (37° C.) % Remaining (at 16-23 hours) pH 9” value in data set [5] (pH 9) was determined as 79%.
Consider `Cn1cc(/C=C2\Oc3cc(O)cc(O)c3C2=O)c2c(-c3ccccc3)ccnc21` [(2Z)-4,6-dihydroxy-2-[(1-methyl-4-phenyl-1H-pyrrolo[2,3-b]pyridin-3-yl)methylene]-1-benzofuran-3(2H)-one], for which, on PI3K alpha (read-out: PI3K alpha Mean IC50), the half-maximal inhibitory concentration (IC50) is 62.8 nM. In addition, in [6] (a − b (first value of cell), read-out: CACO2 Pe a − b), the Papp A→B was 66.3 ×10⁻⁶ cm/s. In data set [6] (b − a (second value of cell), read-out: CACO2 Pe b − a), the Papp B→A stood at 58.1 ×10⁻⁶ cm/s. Besides, the half-life in data set [1] (setting [7]) is over 30 min; in data set [1] (setting [8]), 6 min; in data set [2] (setting [9]) it was 30 min; in data set [2] (setting [10]) it was 2 min; in data set [3] (setting [11]), over 30 min. In the data set “Solubility pH 7.4”, this molecule had a solubility of 1 µg/mL (≈ 2.6 µM). In addition, in data set [4], the “PAMPA Pe” value is 0.09 10e−6 cm/s.
`COc1ccc2c(c1)c(/C=C1\Oc3ccc(O)cc3C1=O)c(C)n2CCN1CCN(C)CC1` [(2Z)-5-hydroxy-2-({5-methoxy-2-methyl-1-[2-(4-methylpiperazin-1-yl)ethyl]-1H-indol-3-yl}methylene)-1-benzofuran-3(2H)-one]: the IC50 at mTOR (read-out: mTOR Mean IC50) stood at 1050 nM.
As to `COc1ccc2c(c1)c(/C=C1\Oc3cc(O)ccc3C1=O)c(C)n2CCN1CCN(C)CC1` [(2Z)-6-hydroxy-2-({5-methoxy-2-methyl-1-[2-(4-methylpiperazin-1-yl)ethyl]-1H-indol-3-yl}methylene)-1-benzofuran-3(2H)-one], the half-inhibitory concentration (IC50) on PI3K alpha (read-out: PI3K alpha Mean IC50) came to 12.2 nM; at mTOR (read-out: mTOR Mean IC50), 325 nM. The half-life was 6 min in data set [1] (setting [7]); 5 min in data set [1] (setting [8]); 26 min in [2] (setting [9]); 20 min in data set [2] (setting [10]); 12 min in data set [3] (setting [11]); 8 min in data set [3] (setting [12]). This molecule also yielded a solubility in “Solubility pH 7.4” of 68 µg/mL (≈ 152 µM). In addition, the “PAMPA Pe” value in data set [4] is recorded as 0.01 10e−6 cm/s.
As to `COc1ccc2c(c1)c(/C=C1\Oc3cc(OC(=O)N4CCOCC4)cc(OC(=O)N4CCOCC4)c3C1=O)cn2CCCN(C)C` [Example 1, (2Z)-2-({1-[3-(dimethylamino)propyl]-5-methoxy-1H-indol-3-yl}methylene)-3-oxo-2,3-dihydro-1-benzofuran-4,6-diyl dimorpholine-4-carboxylate], the half-maximal inhibitory concentration (IC50) against PI3K alpha was over 10000 nM; on mTOR (read-out: mTOR Mean IC50) it was over 4000 nM. In data set [3] (setting [11]), the half-life was over 30 min. Besides, in “Solubility pH 7.4”, the solubility was over 100 µg/mL. Further, in data set [4], the “PAMPA Pe” value was 1.4 10e−6 cm/s.
Consider `CCOC(=O)CNC(=O)Oc1ccc2c(c1)O/C(=C\c1cn(CCCN(C)C)c3ccc(OC)cc13)C2=O` [Example 25, ethyl N-({[(2Z)-2-({1-[3-(dimethylamino)propyl]-5-methoxy-1H-indol-3-yl}methylene)-3-oxo-2,3-dihydro-1-benzofuran-6-yl]oxy}carbonyl)glycinate], for which the IC50 at PI3K alpha is 86 nM; on mTOR (read-out: mTOR Mean IC50), 610 nM. Also, in “Solubility pH 7.4”, the solubility is over 100 µg/mL. Besides, the “PAMPA Pe” value in [4] was 0 10e−6 cm/s.
As for `COc1ccc2[nH]c(-c3ccccc3)c(/C=C3\Oc4cc(OP(=O)(O)c5ccccc5)ccc4C3=O)c2c1` [Example 26, (2Z)-2-[(5-methoxy-2-phenyl-1H-indol-3-yl)methylene]-3-oxo-2,3-dihydro-1-benzofuran-6-yl hydrogen phenylphosphonate], the concentration for half-maximal inhibition (IC50) amounted to 108 nM on PI3K alpha and 2200 nM at mTOR (read-out: mTOR Mean IC50). Also, the half-life in data set [3] (setting [11]) is over 30 min. This molecule also returned a solubility in “Solubility pH 7.4” of 11 µg/mL (≈ 21 µM). The “PAMPA Pe” value in [4] is given as 0 10e−6 cm/s.
Take `COc1ccc2[nH]c(-c3ccccc3)c(/C=C3\Oc4cc(OC(=O)N(C(C)C)C(C)C)cc(OC(=O)N(C(C)C)C(C)C)c4C3=O)c2c1` [Example 31, (2Z)-2-[(5-methoxy-2-phenyl-1H-indol-3-yl)methylene]-3-oxo-2,3-dihydro-1-benzofuran-4,6-diyl bis(diisopropylcarbamate)]: the 50% inhibitory concentration (IC50) is 270 nM at PI3K alpha (read-out: PI3K alpha Mean IC50) and 510 nM on mTOR (read-out: mTOR Mean IC50). The half-life in data set [1] (setting [7]) is 7 min; in data set [2] (Phase I (NADPH), read-out: Microsome Stability (15 min) T ½ Phase I nude mouse), over 30 min; in data set [3] (setting [11]), 9 min. Besides, the “PAMPA Pe” value in data set [4] was 0 10e−6 cm/s.
Take `COc1ccc2c(c1)c(/C=C1\Oc3cc(OC(=O)N4CCN(C)CC4)cc(OC(=O)N4CCN(C)CC4)c3C1=O)cn2CCCN(C)C` [Example 36, (2Z)-2-({1-[3-(dimethylamino)propyl]-5-methoxy-1H-indol-3-yl}methylene)-3-oxo-2,3-dihydro-1-benzofuran-4,6-diyl bis(4-methylpiperazine-1-carboxylate)]: the IC50 on PI3K alpha was over 10000 nM; on mTOR (read-out: mTOR Mean IC50) it was 1080 nM. This molecule had a solubility in the data set “Solubility pH 7.4” of 36 µg/mL (≈ 54.5 µM). Further, the “PAMPA Pe” value in data set [4] was 0.23 10e−6 cm/s.
`COc1ccc2c(c1)c(/C=C1\Oc3cc(OC(=O)N4CCN(Cc5ccccc5)CC4)cc(OC(=O)N4CCN(Cc5ccccc5)CC4)c3C1=O)cn2CCCN(C)C` [Example 37, (2Z)-2-({1-[3-(dimethylamino)propyl]-5-methoxy-1H-indol-3-yl}methylene)-3-oxo-2,3-dihydro-1-benzofuran-4,6-diyl bis(4-benzylpiperazine-1-carboxylate)]: the IC50 was over 10000 nM at PI3K alpha and 1650 nM at mTOR (read-out: mTOR Mean IC50). In addition, the “PAMPA Pe” value in [4] is given as 0 10e−6 cm/s.
Take `COc1ccc2c(c1)c(/C=C1\Oc3cc(O)cc(OC(=O)N(C)C)c3C1=O)c(C)n2CCN1CCN(C)CC1` [Example 39, (2Z)-6-hydroxy-2-({5-methoxy-2-methyl-1-[2-(4-methylpiperazin-1-yl)ethyl]-1H-indol-3-yl}methylene)-3-oxo-2,3-dihydro-1-benzofuran-4-yldimethylcarbamate]: the values for the half-maximal inhibitory concentration (IC50) against PI3K alpha and at mTOR were 842 nM and over 4000 nM, respectively. Moreover, the half-life in data set [3] (setting [11]) came out at 27 min. This molecule also had a solubility in “Solubility pH 7.4” of over 100 µg/mL. The “PAMPA Pe” value in [4] is given as 0 10e−6 cm/s.
For `COc1ccc2c(c1)c(/C=C1\Oc3cc(O)cc(OC(=O)N(C)C)c3C1=O)cn2CCCN(C)C` [Example 40, (2Z)-2-({1-[3-(dimethylamino)propyl]-5-methoxy-1H-indol-3-yl}methylene)-6-hydroxy-3-oxo-2,3-dihydro-1-benzofuran-4-yl dimethylcarbamate], the IC50 is 5880 nM against PI3K alpha and over 20000 nM on mTOR (read-out: mTOR Mean IC50).
`COc1ccc2c(c1)c(/C=C1\Oc3cc(OC(=O)N(C)C)cc(O)c3C1=O)c(C)n2CCN1CCN(C)CC1` [Example 41, (2Z)-4-hydroxy-2-({5-methoxy-2-methyl-1-[2-(4-methylpiperazin-1-yl)ethyl]-1H-indol-3-yl}methylene)-3-oxo-2,3-dihydro-1-benzofuran-6-yldimethylcarbamate]: the results for the IC50 on PI3K alpha and against mTOR were 1130 nM and 13000 nM, respectively.
As for `COc1ccc2c(c1)c(/C=C1\Oc3cc(OC(=O)N(C)C)cc(O)c3C1=O)cn2CCCN(C)C` [Example 42, (2Z)-2-({1-[3-(dimethylamino)propyl]-5-methoxy-1H-indol-3-yl}methylene)-4-hydroxy-3-oxo-2,3-dihydro-1-benzofuran-6-yl dimethylcarbamate], the IC50 at PI3K alpha was 2800 nM; at mTOR (read-out: mTOR Mean IC50), over 20000 nM.
As for `CNC(=O)Oc1ccc2c(c1)C(=O)/C(=C/c1cn(CCN3CCN(C)CC3)c3ccc(OC)cc13)O2` [Example 45, (2Z)-2-({5-methoxy-1-[2-(4-methylpiperazin-1-yl)ethyl]-1H-indol-3-yl}methylene)-3-oxo-2,3-dihydro-1-benzofuran-5-yl methylcarbamate], the half-life in [3] (setting [11]) is 9 min. Moreover, at mTOR (read-out: mTOR Mean IC50), the IC50 was over 4000 nM. In “Solubility pH 7.4”, this molecule showed a solubility of 63 µg/mL (≈ 128 µM). Besides, in data set [4], the “PAMPA Pe” value is on record as 0.43 10e−6 cm/s.
